The experiment deals with MV-4-11 cells. Briefly: Gene expression microarray analysis (Affymetrix PrimeView) and GSEA. The experiment is classed as cell-based, human. As to conditions: MV-4-11 cells, 48 hours. Further details: RFU PODN (11730768_x_at) / Fold change /veh PODN (11730768_x_at) / RFU LINC00158 (11744669_a_at) / Fold change /veh LINC00158 (11744669_a_at) / RFU DUSP10 (11751237_a_at) / Fold change /veh DUSP10 (11751237_a_at) / RFU ID3 (11757404_x_at) / Fold change /veh ID3 (11757404_x_at) / RFU PLEKHG5 (11737974_s_at) / Fold change /veh PLEKHG5 (11737974_s_at) / RFU LRRC4B (11730491_at) / Fold change /veh LRRC4B (11730491_at) / RFU GIMAP4 (11747438_a_at) / Fold change /veh GIMAP4 (11747438_a_at) / RFU KRT8 (11758183_x_at) / Fold change /veh KRT8 (11758183_x_at) / RFU CNN1 (11734310_a_at) / Fold change /veh CNN1 (11734310_a_at) / RFU VPS37D (11726825_at) / Fold change /veh VPS37D (11726825_at) / RFU C10orf10 (11716522_x_at) / Fold change /veh C10orf10 (11716522_x_at) / RFU KIR2DL2 /// KIR2DL4 /// KIR2DL5A /// KIR2DL5B /// KIR2DS1 /// KIR2DS2 /// KIR2DS3 /// KIR2DS4 /// KIR3DL3 /// KIR3DL3 /// KIR3DS1 (11738374_at) / Fold change /veh KIR2DL2 /// KIR2DL4 /// KIR2DL5A /// KIR2DL5B /// KIR2DS1 /// KIR2DS2 /// KIR2DS3 /// KIR2DS4 /// KIR3DL3 /// KIR3DL3 /// KIR3DS1 (11738374_at) / RFU C1QL1 (11718748_at) / Fold change /veh C1QL1 (11718748_at) / RFU TMPRSS4 (11747572_a_at) / Fold change /veh TMPRSS4 (11747572_a_at) / RFU HAMP (11756126_x_at) / Fold change /veh HAMP (11756126_x_at) / RFU RNFT2 (11725882_a_at) / Fold change /veh RNFT2 (11725882_a_at) / RFU NR4A2 (11747474_a_at) / Fold change /veh NR4A2 (11747474_a_at) / RFU ABCC12 (11746883_a_at) / Fold change /veh ABCC12 (11746883_a_at) / RFU TMEM136 (11760407_x_at) / Fold change /veh TMEM136 (11760407_x_at) / RFU CLDN22 /// WWC2 (11732394_at) / Fold change /veh CLDN22 /// WWC2 (11732394_at) / RFU HLA-DPB1 (11760878_x_at) / Fold change /veh HLA-DPB1 (11760878_x_at) / RFU SPINT1 (11716480_a_at) / Fold change /veh SPINT1 (11716480_a_at) / RFU GAP43 (11754022_s_at) / Fold change /veh GAP43 (11754022_s_at) / RFU A4GNT (11735810_at) / Fold change /veh A4GNT (11735810_at) / RFU PRB3 (11715151_x_at) / Fold change /veh PRB3 (11715151_x_at) / RFU TUBB4B (11761932_at) / Fold change /veh TUBB4B (11761932_at) / RFU CAPN14 (11732068_a_at) / Fold change /veh CAPN14 (11732068_a_at) / RFU TMCC2 (11721928_a_at) / Fold change /veh TMCC2 (11721928_a_at) / RFU IRGQ (11745062_a_at) / Fold change /veh IRGQ (11745062_a_at) / RFU FAM174B (11720279_a_at) / Fold change /veh FAM174B (11720279_a_at) / RFU TMPRSS4 (11748680_a_at) / Fold change /veh TMPRSS4 (11748680_a_at) / RFU FAM212B (11763350_a_at) / Fold change /veh FAM212B (11763350_a_at) / RFU PLEKHG5 (11743358_a_at) / Fold change /veh PLEKHG5 (11743358_a_at) / RFU ZSCAN30 (11745921_a_at) / Fold change /veh ZSCAN30 (11745921_a_at) / RFU CMKLR1 (11741424_a_at) / Fold change /veh CMKLR1 (11741424_a_at) / RFU LOC101060620 /// MAPK8IP1 (11723275_at) / Fold change /veh LOC101060620 /// MAPK8IP1 (11723275_at) / RFU SPTSSB (11747773_x_at) / Fold change /veh SPTSSB (11747773_x_at) / RFU PRSS12 (11739890_at) / Fold change /veh PRSS12 (11739890_at) / RFU BIN1 (11741810_x_at) / Fold change /veh BIN1 (11741810_x_at) / RFU WNT11 (11732464_a_at) / Fold change /veh WNT11 (11732464_a_at) / RFU C10orf10 (11716521_a_at) / Fold change /veh C10orf10 (11716521_a_at) / RFU C5orf56 (11738089_at) / Fold change /veh C5orf56 (11738089_at) / RFU CYB561 (11721691_x_at) / Fold change /veh CYB561 (11721691_x_at) / RFU ANKRD19P (11752326_a_at) / Fold change /veh ANKRD19P (11752326_a_at) / RFU OR2T12 /// OR2T33 /// OR2T8 (11738714_s_at) / Fold change /veh OR2T12 /// OR2T33 /// OR2T8 (11738714_s_at) / RFU VCAN (11748164_a_at) / Fold change /veh VCAN (11748164_a_at) / RFU JSRP1 (11732532_at) / Fold change /veh JSRP1 (11732532_at) / RFU KRTAP10-11 (11738290_x_at) / Fold change /veh KRTAP10-11 (11738290_x_at) / RFU MYO3A (11730013_a_at) / Fold change /veh MYO3A (11730013_a_at) / RFU EBF3 (11725865_a_at) / Fold change /veh EBF3 (11725865_a_at) / RFU CAMK2N1 (11719241_x_at) / Fold change /veh CAMK2N1 (11719241_x_at) / RFU C5orf56 (11738088_a_at) / Fold change /veh C5orf56 (11738088_a_at) / RFU OLFML3 (11715873_a_at) / Fold change /veh OLFML3 (11715873_a_at) / RFU LOC100653217 /// NTM (11731650_a_at) / Fold change /veh LOC100653217 /// NTM (11731650_a_at) / RFU MAPK11 (11762145_a_at) / Fold change /veh MAPK11 (11762145_a_at) / RFU FIZ1 (11724087_x_at) / Fold change /veh FIZ1 (11724087_x_at) / RFU OASL (11726364_x_at) / Fold change /veh OASL (11726364_x_at) / RFU SOX15 (11748057_x_at) / Fold change /veh SOX15 (11748057_x_at) / RFU CD79A (11719716_a_at) / Fold change /veh CD79A (11719716_a_at) / RFU HIST1H1D (11736915_at) / Fold change /veh HIST1H1D (11736915_at) / RFU CASKIN2 (11723855_a_at) / Fold change /veh CASKIN2 (11723855_a_at) / RFU LOC730098 (11760151_x_at) / Fold change /veh LOC730098 (11760151_x_at) / RFU OR4N2 (11742367_at) / Fold change /veh OR4N2 (11742367_at) / RFU PRRT2 (11749266_a_at) / Fold change /veh PRRT2 (11749266_a_at) / RFU SNX32 (11753110_a_at) / Fold change /veh SNX32 (11753110_a_at) / RFU CDHR5 (11726645_a_at) / Fold change /veh CDHR5 (11726645_a_at) / RFU RCAN1 (11760418_a_at) / Fold change /veh RCAN1 (11760418_a_at) / RFU FAM167A (11723789_a_at) / Fold change /veh FAM167A (11723789_a_at) / RFU FAM26E (11764081_at) / Fold change /veh FAM26E (11764081_at) / RFU ISYNA1 (11749810_s_at) / Fold change /veh ISYNA1 (11749810_s_at) / RFU ACY1 (11761880_at) / Fold change /veh ACY1 (11761880_at) / RFU 11764098_at / Fold change /veh 11764098_at / RFU SAMD14 (11745864_x_at) / Fold change /veh SAMD14 (11745864_x_at) / RFU NPB (11741838_a_at) / Fold change /veh NPB (11741838_a_at) / RFU TMPRSS6 (11731388_a_at) / Fold change /veh TMPRSS6 (11731388_a_at) / RFU KRTAP10-2 (11738614_at) / Fold change /veh KRTAP10-2 (11738614_at) / RFU ARHGAP8 /// PRR5-ARHGAP8 (11727945_x_at) / Fold change /veh ARHGAP8 /// PRR5-ARHGAP8 (11727945_x_at) / RFU KRTAP5-7 /// NADSYN1 (11734609_at) / Fold change /veh KRTAP5-7 /// NADSYN1 (11734609_at) / RFU RASL12 (11751679_a_at) / Fold change /veh RASL12 (11751679_a_at) / RFU CDKN2B (11736163_a_at) / Fold change /veh CDKN2B (11736163_a_at) / RFU PRF1 (11729649_at) / Fold change /veh PRF1 (11729649_at) / RFU, ZNF638 /// ZNF638-IT1 / Fold change vs veh, ZNF638 /// ZNF638-IT1 / RFU, PANK3 / Fold change vs veh, PANK3 / RFU, SH3YL1 / Fold change vs veh, SH3YL1 / RFU, ZEB2 / Fold change vs veh, ZEB2 / RFU, NRIP1 / Fold change vs veh, NRIP1 / RFU, PTTG1IP / Fold change vs veh, PTTG1IP / RFU, CAPN2 / Fold change vs veh, CAPN2 / RFU, MED14 / Fold change vs veh, MED14 / RFU, SNORA58 / Fold change vs veh, SNORA58 / RFU, C1orf63 / Fold change vs veh, C1orf63 / RFU, LRRFIP1 / Fold change vs veh, LRRFIP1 / RFU, NDUFAF7 / Fold change vs veh, NDUFAF7 / RFU, SLC12A2 / Fold change vs veh, SLC12A2 / RFU, IBTK / Fold change vs veh, IBTK / RFU, ESF1 / Fold change vs veh, ESF1 / Fold change vs veh, TMEM50B / RFU, TAOK1 / Fold change vs veh, TAOK1 / RFU, ACBD3 / Fold change vs veh, ACBD3 / RFU, TMA16 / Fold change vs veh, TMA16 / RFU, RWDD3 / Fold change vs veh, RWDD3 / RFU, BCAT1 / Fold change vs veh, BCAT1 / RFU, EDEM3 / Fold change vs veh, EDEM3 / RFU, TMEM33 / Fold change vs veh, TMEM33 / RFU, WDR75 / Fold change vs veh, WDR75 / RFU, AHCTF1 / Fold change vs veh, AHCTF1 / RFU, TFRC / Fold change vs veh, TFRC / RFU, ZDHHC17 / Fold change vs veh, ZDHHC17 / RFU, NOM1 / Fold change vs veh, NOM1 / RFU, ARL8B / Fold change vs veh, ARL8B / RFU, ZBTB11 / Fold change vs veh, ZBTB11 / RFU, TAMM41 / Fold change vs veh, TAMM41 / RFU, KIAA1704 /// LOC100996395 / Fold change vs veh, KIAA1704 /// LOC100996395 / RFU, ING1 / Fold change vs veh, ING1 / RFU, TRMT61B / Fold change vs veh, TRMT61B / RFU, FUBP3 / Fold change vs veh, FUBP3 / RFU, TP53 / Fold change vs veh, TP53 / RFU, TNKS2 / Fold change vs veh, TNKS2 / RFU, ZFP14 / Fold change vs veh, ZFP14 / RFU, ACTR2 / Fold change vs veh, ACTR2 / RFU, PPP3R1 / Fold change vs veh, PPP3R1 / RFU, PIK3R1 / Fold change vs veh, PIK3R1 / RFU, HNRNPA1 / Fold change vs veh, HNRNPA1 / RFU, RNF170 / Fold change vs veh, RNF170 / RFU, ZNF28 / Fold change vs veh, ZNF28 / RFU, RNGTT / Fold change vs veh, RNGTT / RFU, OGT / Fold change vs veh, OGT / RFU, BRD1 / Fold change vs veh, BRD1 / RFU, MARS / Fold change vs veh, MARS / RFU, ZNF655 / Fold change vs veh, ZNF655 / RFU, FAHD1 / Fold change vs veh, FAHD1 / RFU, BDP1 / Fold change vs veh, BDP1 / RFU, LRRCC1 / Fold change vs veh, LRRCC1 / RFU, ARID1A / Fold change vs veh, ARID1A / RFU, ZNF146 / Fold change vs veh, ZNF146 / RFU, ZNF330 / Fold change vs veh, ZNF330 / RFU, GPN3 / Fold change vs veh, GPN3 / RFU, C9orf123 / Fold change vs veh, C9orf123 / RFU, N4BP2L2 / Fold change vs veh, N4BP2L2 / RFU, ARFIP1 / Fold change vs veh, ARFIP1 / RFU, FAM179B / Fold change vs veh, FAM179B / RFU, BCL10 / Fold change vs veh, BCL10 / RFU, UHRF1BP1L / Fold change vs veh, UHRF1BP1L / RFU, BET1 / Fold change vs veh, BET1 / RFU, CNOT2 / Fold change vs veh, CNOT2 / RFU, ZNF268 / Fold change vs veh, ZNF268 / Fold change vs veh, ZNF507 / RFU, DGCR2 / Fold change vs veh, DGCR2 / RFU, WDSUB1 / Fold change vs veh, WDSUB1 / Fold change vs veh, HSP90B1 /// MIR3652 / RFU, ADSS / Fold change vs veh, ADSS / RFU, GK / Fold change vs veh, GK / RFU, ZNF148 / Fold change vs veh, ZNF148 / RFU, TAF9 / Fold change vs veh, TAF9 / RFU, SLC1A5 / Fold change vs veh, SLC1A5 / RFU, SLMO2 / Fold change vs veh, SLMO2 / RFU, ABCC4 / Fold change vs veh, ABCC4 / RFU, LOC101060439 /// RAP1B / Fold change vs veh, LOC101060439 /// RAP1B / RFU, RFX7 / Fold change vs veh, RFX7 / RFU, GTPBP10 / Fold change vs veh, GTPBP10 / RFU, CNEP1R1 / Fold change vs veh, CNEP1R1 / RFU, BIVM-ERCC5 /// ERCC5 / Fold change vs veh, BIVM-ERCC5 /// ERCC5 / RFU, ILF3 / Fold change vs veh, ILF3 / RFU 11762660_at / Fold change /veh 11762660_at / RFU VCAN (11757783_s_at) / Fold change /veh VCAN (11757783_s_at) / RFU DDX43 (11728927_at) / Fold change /veh DDX43 (11728927_at) / RFU KRT8 (11758188_x_at) / Fold change /veh KRT8 (11758188_x_at) / RFU NKD1 (11759106_at) / Fold change /veh NKD1 (11759106_at) / RFU SRD5A1 (11742802_a_at) / Fold change /veh SRD5A1 (11742802_a_at) / RFU TPSAB1 /// TPSB2 (11721975_s_at) / Fold change /veh TPSAB1 /// TPSB2 (11721975_s_at) / RFU GSTM3 (11746129_a_at) / Fold change /veh GSTM3 (11746129_a_at) / RFU IL23R (11737362_x_at) / Fold change /veh IL23R (11737362_x_at) / RFU TMEM51 (11727254_a_at) / Fold change /veh TMEM51 (11727254_a_at) / RFU PIWIL2 (11732686_x_at) / Fold change /veh PIWIL2 (11732686_x_at) / RFU ORM1 (11744905_x_at) / Fold change /veh ORM1 (11744905_x_at) / RFU CCDC152 (11743942_at) / Fold change /veh CCDC152 (11743942_at) / RFU ECM1 (11717891_a_at) / Fold change /veh ECM1 (11717891_a_at) / RFU IL23R (11748794_a_at) / Fold change /veh IL23R (11748794_a_at) / RFU TNFAIP8L3 (11732012_x_at) / Fold change /veh TNFAIP8L3 (11732012_x_at) / RFU MBOAT4 (11741988_at) / Fold change /veh MBOAT4 (11741988_at) / RFU 11764193_at / Fold change /veh 11764193_at / RFU TMEM53 (11763286_at) / Fold change /veh TMEM53 (11763286_at) / RFU MAGEB2 (11727129_at) / Fold change /veh MAGEB2 (11727129_at) / RFU TMEM200A (11744735_a_at) / Fold change /veh TMEM200A (11744735_a_at) / RFU CCDC152 (11751479_a_at) / Fold change /veh CCDC152 (11751479_a_at) / RFU FAM211A (11726209_a_at) / Fold change /veh FAM211A (11726209_a_at) / RFU RGS16 (11746705_a_at) / Fold change /veh RGS16 (11746705_a_at) / RFU VCAN (11755009_s_at) / Fold change /veh VCAN (11755009_s_at) / RFU RHOB (11743442_s_at) / Fold change /veh RHOB (11743442_s_at) / RFU RGS16 (11720943_a_at) / Fold change /veh RGS16 (11720943_a_at) / RFU RGS16 (11720944_at) / Fold change /veh RGS16 (11720944_at) / RFU, VPS4B / Fold change vs veh, VPS4B / RFU, CREB1 / Fold change vs veh, CREB1 / RFU, DNAJC13 / Fold change vs veh, DNAJC13 / RFU, GNAQ / Fold change vs veh, GNAQ / RFU, CDK5R1 / Fold change vs veh, CDK5R1 / RFU, ZRANB3 / Fold change vs veh, ZRANB3 / RFU, CUL4A / Fold change vs veh, CUL4A / RFU, CCNY / Fold change vs veh, CCNY / RFU, UFL1 / Fold change vs veh, UFL1 / RFU, COG3 / Fold change vs veh, COG3 / RFU, DIAPH2 / Fold change vs veh, DIAPH2 / RFU, SKA2 / Fold change vs veh, SKA2 / RFU, AFF3 / Fold change vs veh, AFF3 / RFU, LMF1 / Fold change vs veh, LMF1 / RFU, IPO11 / Fold change vs veh, IPO11 / RFU, DFFB / Fold change vs veh, DFFB / RFU, FOXP1 / Fold change vs veh, FOXP1 / RFU, CARD8 / Fold change vs veh, CARD8 / RFU, STRN3 / Fold change vs veh, STRN3 / RFU, ADK / Fold change vs veh, ADK / RFU, RASSF2 / Fold change vs veh, RASSF2 / RFU, WIPF1 / Fold change vs veh, WIPF1 / RFU, LARP1B / Fold change vs veh, LARP1B / RFU, RASA1 / Fold change vs veh, RASA1 / RFU, RB1 / Fold change vs veh, RB1 / RFU, PPFIA1 / Fold change vs veh, PPFIA1 / RFU, MAT2A / Fold change vs veh, MAT2A / RFU, CCT5 / Fold change vs veh, CCT5 / RFU, WDR92 / Fold change vs veh, WDR92 / RFU, CUX1 / Fold change vs veh, CUX1 / RFU, TTC7A / Fold change vs veh, TTC7A / RFU, TMEM135 / Fold change vs veh, TMEM135 / RFU, DEPTOR / Fold change vs veh, DEPTOR / RFU, CPM / Fold change vs veh, CPM / RFU, DNAJB6 / Fold change vs veh, DNAJB6 / RFU, CACNA2D3 / Fold change vs veh, CACNA2D3 / RFU, DTX4 / Fold change vs veh, DTX4 / RFU, TFCP2 / Fold change vs veh, TFCP2 / RFU, GMCL1 /// GMCL1P1 / Fold change vs veh, GMCL1 /// GMCL1P1 / RFU, AEBP2 / Fold change vs veh, AEBP2 / RFU, SNHG1 /// SNORD22 /// SNORD25 /// SNORD26 /// SNORD27 /// SNORD28 /// SNORD29 /// SNORD31 / Fold change vs veh, SNHG1 /// SNORD22 /// SNORD25 /// SNORD26 /// SNORD27 /// SNORD28 /// SNORD29 /// SNORD31 / Fold change (Aza/veh), C12orf56 (ProbeSet 11735607_a_at) / Fold change (ACY-1035/veh), C12orf56 (ProbeSet 11735607_a_at) / Fold change (Aza/veh), FGFR1OP (ProbeSet 11751329_s_at) / Fold change (ACY-1035/veh), FGFR1OP (ProbeSet 11751329_s_at) / Fold change (Aza/veh), VPS36 (ProbeSet 11739960_a_at) / Fold change (ACY-1035/veh), VPS36 (ProbeSet 11739960_a_at) / RFU SYPL1 (11715823_x_at) / Fold change /veh SYPL1 (11715823_x_at) / RFU IGFBP7 (11715501_s_at) / Fold change /veh IGFBP7 (11715501_s_at) / RFU REEP3 (11722064_at) / Fold change /veh REEP3 (11722064_at) / RFU IGLL1 (11728026_x_at) / Fold change /veh IGLL1 (11728026_x_at): dose or concentration left out as unconfirmed.

One compound from PMC5218480 (PLoS ONE, 2017) can be followed below.

The structures appear in SMILES notation.

Take `Nc1ncn([C@@H]2O[C@H](CO)[C@@H](O)[C@H]2O)c(=O)n1` [azacitidine]: the “Fold change /veh RNFT2 (11725882_a_at)” value was found to be 1.12.
